Reference: PMC11747885, “Potent inhibitors of the human RNA ligase Rlig1 highlights its role in RNA integrity maintenance under oxidative cellular stress” (Chemical Science, 2025)
pEC50, pIC50: −log10 of the molar value. ≈ marks a conversion by molar mass, not a printed value. Where “and” joins values, the source holds several entries; their conditions need not be identical. Equal entries are not always repeated. Entries after “also recorded” stand apart in the source; their conditions may differ. Where two headings read alike, the source gives them in different places. Marks after values point to notes of the source that are not given here.

How the values were obtained:
Rlig1-AMP [1] = molecular target: T1, Rlig1-AMP (Homo sapiens, UniProt Q8N999); experiment: FRET-based high-throughput screening of inhibitors for Rlig1-AMP; format: biochemical; details: sheet HTS hits; for 1-D Distance: difference of raw data w/o and w enzyme; for Raw data [w Enyzm]: with enzyme; for Raw data [w/o Enzym]: without enzyme; for 1-D Distance.npi: MedChemExpress library
T1 construct: made in house; host or cells: E. coli BL21 (DE3), pET15b-Rlig1
T1 sequence (Q8N999 whole entry): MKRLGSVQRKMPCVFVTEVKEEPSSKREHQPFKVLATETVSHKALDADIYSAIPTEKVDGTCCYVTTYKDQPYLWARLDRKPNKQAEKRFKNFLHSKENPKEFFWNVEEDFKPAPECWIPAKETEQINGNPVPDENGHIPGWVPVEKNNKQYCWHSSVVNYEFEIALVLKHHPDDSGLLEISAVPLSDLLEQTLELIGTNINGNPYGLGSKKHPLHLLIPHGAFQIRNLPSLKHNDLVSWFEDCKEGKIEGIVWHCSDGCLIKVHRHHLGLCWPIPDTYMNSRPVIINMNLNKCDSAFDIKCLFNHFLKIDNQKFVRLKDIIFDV

[2] = ref MedChemExpress, cited from earlier work; for solubility, DMSO: in DMSO; for solubility, H2O: in H2O
in vitro = details: human
HEK293 cells [3] = experiment: Cell viability assay of HEK293 cells treated with inhibitors (CellTiter-Glo)
Rlig1-AMP [4] = molecular target: T1, Rlig1-AMP; experiment: Radioactive RNA ligation assay (hit validation, 10 µM test and IC50 determination); format: biochemical; details: for pIC50: n = 3
HEK293 cells [5] = experiment: Cell viability assay of HEK293 cells treated with inhibitors and menadione; format: cell-based, human; details: for Mean Diff, (Predicted (LS) mean diff,) w/o menadione - w menadione: 2 way ANOVA, Šídák's multiple comparisons test, normalised viability
[6] = as above; format: cell-based, human; details: human, HEK293 cells, w/o Menadione; for viability at 7.5 µM: 7.5 µM compound; for viability at 15 µM: 15 µM compound; for viability at 30 µM: 30 µM compound; for viability at 60 µM: 60 µM compound
[7] = log(inhibitor) vs. response, variable slope (four parameters)
[8] = 20240508 plate 012, DMSO Ko no Mendione = 100
[9] = 20240508 plate 013, DMSO Ko no Mendione = 100
[10] = 20240515 plate 014, DMSO Ko no Mendione = 100
[11] = 20240515 plate 015, DMSO Ko no Mendione = 100

SMILES: COC(=O)c1cc(OC)c2c(c1-c1c(C(=O)OC)cc(OC)c3c1OCO3)OCO2 [Bifendate]
- 1-D Distance (Rlig1-AMP [1]): 1790
- Raw data [w Enyzm] (Rlig1-AMP [1]): 9076
- Raw data [w/o Enzym] (Rlig1-AMP [1]): 10866
- solubility, DMSO [2]: 50 mg/mL (≈ 120 mM)
- solubility, H2O [2]: 1 mg/mL (≈ 2.39 mM)

SMILES: CCCCCCCCCCCCCCCC[n+]1ccccc1.O.[Cl-] [Cetylpyridinium (chloride monohydrate)]
- solubility, DMSO [2]: 20 mg/mL
- solubility, H2O [2]: ≥ 100 mg/mL

SMILES: CCCCCCCCCCCCCCCC[n+]1ccccc1.[Cl-] [Cetylpyridinium (chloride)]
- solubility, DMSO [2]: DMSO : 100 mg/mL (294.13 mM; Need ultrasonic); H2O : 100 mg/mL (294.13 mM; Need ultrasonic)
- solubility, H2O [2]: DMSO : 100 mg/mL (294.13 mM; Need ultrasonic); H2O : 100 mg/mL (294.13 mM; Need ultrasonic)

SMILES: Cc1cc(Nc2ccc(NC(=O)c3ccc(Nc4ncnc5ccccc45)cc3)cc2)nc(N)n1 [Compound 45]
- viability at 24 h, 0.234375 µM (in vitro): 110%
- viability at 24 h, 0.46875 µM (in vitro): 101%
- viability at 24 h, 0.9375 µM (in vitro): 105%
- viability at 24 h, 1.875 µM (in vitro): 100%
- viability at 24 h, 3.75 µM (in vitro): 103%
- viability at 24 h, 7.5 µM (in vitro): 97.1%
- viability at 24 h, 15 µM (in vitro): 90.2%
- viability at 24 h, 30 µM (in vitro): 88.8%
- cytotoxicity (in words) (HEK293 cells [3]; HEK293, 24 h, up to 30 μM): no detectable cytotoxicity
- IC50 (Figure 3D: EC50 values for plot; log(inhibitor) vs. response -- Variable slope (four parameters)) (HEK293 cells [3]; HEK293 cell viability, fit per plate (3 plates, 4 technical replicates each), highest tested concentration 30 µM): 336.896 µM and 119.897 µM and 368.238 µM
- LogIC50 (log(inhibitor) vs. response -- Variable slope (four parameters)) (HEK293 cells [3]; HEK293 cell viability, fit per plate (3 plates, 4 technical replicates each), log of [µM]): 2.5275 and 2.079 and 2.566
- pEC50 (HEK293 cells [3]; Homo sapiens, HEK293, 24 h): < 4.52
- inhibition of Rlig1-AMP ligation (urea-PAGE) (Rlig1-AMP [4]; 10 μM compound, 500 nM Rlig1-AMP, 20 min 37 °C): Ligation was inhibited; also recorded: inhibited ligase activity
- HillSlope (best-fit value) (Rlig1-AMP [4]; four-parameter fit): 4.095
- Span (best-fit value) (Rlig1-AMP [4]; four-parameter fit): 90.88
- pIC50 (Rlig1-AMP [4]; four-parameter fit, read-out: IC50 (best-fit value)): 5.15
- inhibition at 30 µM (Rlig1-AMP [4]; log Compound [µM] 1.47712, replicates I-III, read-out: percentage inhibition (dose response curve for IC50)): 100%
- LogIC50 (best-fit value) (Rlig1-AMP [4]; log of µM, four-parameter fit): 0.8461
- Bottom (best-fit value) (Rlig1-AMP [4]; [7]): 7.303
- Top (best-fit value) (Rlig1-AMP [4]; [7]): 98.18
- pIC50 (Rlig1-AMP [4]; radioactive ligation assay, 500 nM Rlig1-AMP, 20 min 37 °C, read-out: IC50): 5.15
- Mean Diff, (Predicted (LS) mean diff,) w/o menadione - w menadione (HEK293 cells [5]; 7.5 µM compound): 24.88
- Cell viability raw signal, technical replicates (HEK293 cells [5]; 7.5 µM compound, w Menadione (40µM), 20240508 plate 012): 16292 and 19945 and 19668 and 21930
- Cell viability raw signal, technical replicates (HEK293 cells [5]; 7.5 µM compound, w Menadione (40µM), 20240508 plate 013): 13213 and 13818 and 17967 and 18789
- Cell viability raw signal, technical replicates (HEK293 cells [5]; 7.5 µM compound, w Menadione (40µM), 20240515 plate 014): 24555 and 24471 and 26313 and 33654
- Cell viability raw signal, technical replicates (HEK293 cells [5]; 7.5 µM compound, w Menadione (40µM), 20240515 plate 015): 35092 and 33991 and 36306 and 39027
- Cell viability raw signal, technical replicates (HEK293 cells [5]; 7.5 µM compound, w/o Menadione, 20240508 plate 012): 424180 and 398710 and 420300 and 419520
- Cell viability raw signal, technical replicates (HEK293 cells [5]; 7.5 µM compound, w/o Menadione, 20240508 plate 013): 399000 and 385630 and 399650 and 394170
- Cell viability raw signal, technical replicates (HEK293 cells [5]; 7.5 µM compound, w/o Menadione, 20240515 plate 014): 359950 and 358800 and 374740 and 459430
- Cell viability raw signal, technical replicates (HEK293 cells [5]; 7.5 µM compound, w/o Menadione, 20240515 plate 015): 358750 and 400730 and 451820 and 450580
- Mean Diff, (Predicted (LS) mean diff,) w/o menadione - w menadione (HEK293 cells [5]; 15 µM compound): 16.86
- Cell viability raw signal, technical replicates (HEK293 cells [5]; 15 µM compound, w Menadione (40µM), 20240508 plate 012): 17222 and 18766 and 16741 and 22933
- Cell viability raw signal, technical replicates (HEK293 cells [5]; 15 µM compound, w Menadione (40µM), 20240508 plate 013): 19848 and 20626 and 16969 and 23253
- Cell viability raw signal, technical replicates (HEK293 cells [5]; 15 µM compound, w Menadione (40µM), 20240515 plate 014): 32272 and 27116 and 27955 and 28425
- Cell viability raw signal, technical replicates (HEK293 cells [5]; 15 µM compound, w Menadione (40µM), 20240515 plate 015): 25226 and 26073 and 29252 and 24387
- Cell viability raw signal, technical replicates (HEK293 cells [5]; 15 µM compound, w/o Menadione, 20240508 plate 012): 374870 and 367440 and 401070 and 451770
- Mean Diff, (Predicted (LS) mean diff,) w/o menadione - w menadione (HEK293 cells [5]; 30 µM compound): 21.74
- Cell viability raw signal, technical replicates (HEK293 cells [5]; 30 µM compound, w Menadione (40µM), 20240508 plate 012): 97659* and 121480* and 17759 and 18485
- Cell viability raw signal, technical replicates (HEK293 cells [5]; 30 µM compound, w Menadione (40µM), 20240508 plate 013): 90653* and 101750* and 11751 and 20016
- Cell viability raw signal, technical replicates (HEK293 cells [5]; 30 µM compound, w Menadione (40µM), 20240515 plate 014): 23460 and 20263 and 23532 and 25800
- Cell viability raw signal, technical replicates (HEK293 cells [5]; 30 µM compound, w Menadione (40µM), 20240515 plate 015): 18936 and 15616 and 21631 and 19990
- Cell viability raw signal, technical replicates (HEK293 cells [5]; 30 µM compound, w/o Menadione, 20240508 plate 012): 326400 and 344550 and 324690 and 360730
- Cell viability raw signal, technical replicates (HEK293 cells [5]; 30 µM compound, w/o Menadione, 20240508 plate 013): 380950 and 384250 and 337920 and 371050
- Cell viability raw signal, technical replicates (HEK293 cells [5]; 30 µM compound, w/o Menadione, 20240515 plate 014): 277620 and 270780 and 277750 and 275770
- Cell viability raw signal, technical replicates (HEK293 cells [5]; 30 µM compound, w/o Menadione, 20240515 plate 015): 297120 and 296520 and 307370 and 366230
- Mean Diff, (Predicted (LS) mean diff,) w/o menadione - w menadione (HEK293 cells [5]; 60 µM compound): 16.46
- Cell viability raw signal, technical replicates (HEK293 cells [5]; 60 µM compound, w Menadione (40µM), 20240515 plate 014): 18908 and 18178 and 17095 and 16101
- Cell viability raw signal, technical replicates (HEK293 cells [5]; 60 µM compound, w Menadione (40µM), 20240515 plate 015): 15825 and 18398 and 15296 and 15572
- Cell viability raw signal, technical replicates (HEK293 cells [5]; 60 µM compound, w/o Menadione, 20240515 plate 014): 265840 and 239610 and 250590 and 244440
- Cell viability raw signal, technical replicates (HEK293 cells [5]; 60 µM compound, w/o Menadione, 20240515 plate 015): 267940 and 266670 and 268950 and 268790
- viability at 7.5 µM [6, 8]: 99.2%
- viability at 7.5 µM [6, 9]: 99.9%
- viability at 7.5 µM [6, 10]: 95.1%
- viability at 7.5 µM [6, 11]: 102%
- viability at 15 µM [6, 8]: 95.2%
- viability at 15 µM [6, 9]: 92.3%
- viability at 15 µM [6, 10]: 81.5%
- viability at 15 µM [6, 11]: 84.3%
- viability at 30 µM [6, 8]: 80.9%
- viability at 30 µM [6, 9]: 93.3%
- viability at 30 µM [6, 10]: 67.5%
- viability at 30 µM [6, 11]: 77.5%
- viability at 60 µM [6, 10]: 61.3%
- viability at 60 µM [6, 11]: 65.6%

SMILES: COc1cccc2c1C(=O)c1c(O)c3c(c(O)c1C2=O)C[C@@](O)(C(C)=O)C[C@@H]3O[C@H]1C[C@H](N)[C@H](O)[C@H](C)O1.Cl [Daunorubicin (hydrochloride)]
- 1-D Distance.npi (Rlig1-AMP [1]): 94.9773
- 1-D Distance (Rlig1-AMP [1]): 667
- Raw data [w Enyzm] (Rlig1-AMP [1]): 1522
- Raw data [w/o Enzym] (Rlig1-AMP [1]): 2189
- solubility, DMSO [2]: 50 mg/mL
- solubility, H2O [2]: ≥ 34 mg/mL

SMILES: C[C@]12C=CC(=O)N[C@@H]1CC[C@@H]1[C@@H]2CC[C@]2(C)[C@@H](C(=O)Nc3cc(C(F)(F)F)ccc3C(F)(F)F)CC[C@@H]12 [Dutasteride]
- 1-D Distance (Rlig1-AMP [1]): 1706
- Raw data [w Enyzm] (Rlig1-AMP [1]): 9054
- Raw data [w/o Enzym] (Rlig1-AMP [1]): 10760
- solubility, DMSO [2]: DMSO : 33.33 mg/mL (63.06 mM; Need ultrasonic)

SMILES: CC1=NN(c2ccc(C)c(C)c2)C(=O)/C1=N\Nc1cccc(-c2cccc(C(=O)O)c2)c1O [Eltrombopag]
- 1-D Distance (Rlig1-AMP [1]): 1388
- Raw data [w Enyzm] (Rlig1-AMP [1]): 3742
- Raw data [w/o Enzym] (Rlig1-AMP [1]): 5130
- solubility, DMSO [2]: 8.33 mg/mL (≈ 18.8 mM)
- solubility, H2O [2]: < 0.1 mg/mL

SMILES: COC(=O)/C=C/c1ccc(O)c(O)c1 [Methyl caffeate]
- 1-D Distance (Rlig1-AMP [1]): 1343
- Raw data [w Enyzm] (Rlig1-AMP [1]): 9476
- Raw data [w/o Enzym] (Rlig1-AMP [1]): 10819
- solubility, DMSO [2]: DMSO : 33.33 mg/mL (171.64 mM; ultrasonic and warming and heat to 60°C)

SMILES: [N-]=[N+]=NCCOCCOCCOCCN(CCOCCOCCN)CCOCCOCCOCCN=[N+]=[N-] [N-(Amino-PEG2)-N-bis(PEG3-azide)]
- 1-D Distance.npi (Rlig1-AMP [1]): 72.3118
- 1-D Distance (Rlig1-AMP [1]): 1919
- Raw data [w Enyzm] (Rlig1-AMP [1]): 9036
- Raw data [w/o Enzym] (Rlig1-AMP [1]): 10955
- solubility, DMSO [2]: DMSO : 100 mg/mL (181.60 mM; Need ultrasonic)
